In ChEMBL document CHEMBL4325859, “Research advances on anticancer activities of matrine and its derivatives: An updated overview” (Eur J Med Chem, 2019):

Columns and labels:
[1] = system: NB-4; test: Induction of apoptosis in human NB4 cells after 24 hrs by Annexin V-FITC/propidium iodide staining based flow cytometry relative to control; type: functional
[2] = system: MM1.S; test: Growth inhibition of human MM1S cells at […] after 24 hrs relative to control; type: functional; conditions: read-out: GI
[3] = system: 5637; test: Antiproliferative activity against human 5637 cells after 48 hrs by CCK8 assay; type: functional, cell-based; conditions: Homo sapiens, 5637, 48 h
[4] = system: KYSE-150 cell line; test: Antiproliferative activity against human KYSE-150 cells assessed as cell viability at 2.5 mg/ml after 24 hrs by MTT assay relative to control; type: functional; conditions: KYSE-150, 24 h, read-out: Activity
[5] = system: HT-29; test: Growth inhibition of human HT-29 cells at 16 ml/L after 36 hrs by MTT assay relative to control; type: functional
[6] = system: HT-29; test: Synergistic growth inhibition of human HT-29 cells at 2 mg/ml cotreated with 10 ug/ml irinotecan by MTT assay relative to control; type: functional
[7] = system: Ca-Ski; test: Antiproliferative activity against human CaSki cells after 48 hrs by CCK8 assay; type: functional, cell-based

How did the Activity [1] turn out when `O=C1CCC[C@@H]2[C@H]3CCCN4CCC[C@@H](CN12)[C@@H]34` [MATRINE] was run?
The Activity was 33%.

What about the inhibition of growth at 2 g/mL [2] of the same compound?
Its inhibition of growth at 2 g/mL is 73%.

What about the IC50 [3] of the same compound?
The IC50 was 4.48 mM.

What about the viability at 2500 µg/mL [4] of the same compound?
The viability at 2500 µg/mL was 40.4%.

And the “growth inhibition (GI)” value [5]?
Its value is 68.29%.

And the “growth inhibition (GI)” value [6]?
Its value is 95.29%.

And the IC50 [7]?
Its IC50 is 5.8 mM.
